Converted amounts (≈) assume the structure as drawn. Read-outs that look alike come from different tables or passages of the source.
Key:
Str. pneumoniae A-9585 = assay: MIC, tube dilution, Streptococcus pneumoniae A9585; format: cell-based; details: Streptococcus pneumoniae, A9585, Str. pneumoniae A9585; overnight 37° C., Nutrient Broth; read-out: Minimum Inhibitory Concentration (M.I.C.)
Excerpt: (§1) Representative compounds of the present invention were subjected to in vitro antibiotic screening against a variety of microorganisms.

Str. pyogenes A-9604 = assay: MIC, tube dilution, Streptococcus pyogenes A9604; format: cell-based; details: overnight 37° C., Nutrient Broth; for MIC: Streptococcus pyogenes, A9604, Str. pyogenes A9604, read-out: Minimum Inhibitory Concentration (M.I.C.)
Excerpt: as §1

Staph. aureus A-9537 = assay: MIC, tube dilution, Staphylococcus aureus A9537; format: cell-based; details: overnight 37° C., Nutrient Broth; for MIC: Staphylococcus aureus, A9537, Staph. aureus A9537, read-out: Minimum Inhibitory Concentration (M.I.C.)
Excerpt: as §1

[1] = test system: Staph. aureus A-9537 and 50% serum; assay: MIC, tube dilution, Staph. aureus A9537 + 50% serum; format: cell-based, Staphylococcus aureus; details: Staphylococcus aureus, overnight 37° C., read-out: Minimum Inhibitory Concentration (M.I.C.)
Excerpt: as §1

[2] = test system: Staph. aureus (Pen-Res) A-9606; assay: MIC, tube dilution, Staphylococcus aureus A9606 (Pen-Res); format: cell-based; details: Staphylococcus aureus, overnight 37° C.
Excerpt: as §1

[3] = test system: Staph. aureus (Meth-Res) A-15097; assay: MIC, tube dilution, Staphylococcus aureus A15097 (Meth-Res); format: cell-based; details: overnight 37° C.; for MIC: Staphylococcus aureus
Excerpt: as §1

Str. faecalis A-20688 = assay: MIC, tube dilution, Streptococcus faecalis A20688; format: cell-based; details: Enterococcus faecalis, A20688, Str. faecalis A20688; overnight 37° C.; read-out: Minimum Inhibitory Concentration (M.I.C.)
Excerpt: as §1

E. coli A-15119 = assay: MIC, tube dilution, Escherichia coli A15119; format: cell-based; details: Escherichia coli, A15119, E. coli A15119; overnight 37° C.; read-out: Minimum Inhibitory Concentration (M.I.C.)
Excerpt: as §1

E. coli A-20341-1 = assay: MIC, tube dilution, Escherichia coli A20341-1; format: cell-based
Excerpt: as §1

K. pneumoniae A-15130 = assay: MIC, tube dilution, Klebsiella pneumoniae A15130; format: cell-based; details: Klebsiella pneumoniae, A15130, K. pneumoniae A15130; overnight 37° C.; read-out: Minimum Inhibitory Concentration (M.I.C.)
Excerpt: as §1

[4] = test system: Klebsiella species A20468; assay: MIC, tube dilution, Klebsiella species A20468; format: cell-based; details: Klebsiella species (K. pneumoniae) A20468; overnight 37° C.; read-out: Minimum Inhibitory Concentration (M.I.C.)
Excerpt: as §1

Pr. mirabilis A-9900 = assay: MIC, tube dilution, Proteus mirabilis A9900; format: cell-based; details: Proteus mirabilis, A9900, Proteus mirabilis A9900; overnight 37° C.; read-out: Minimum Inhibitory Concentration (M.I.C.)
Excerpt: as §1

Pr. morganii A-15153 = assay: MIC, tube dilution, Proteus morganii A15153; format: cell-based; details: Morganella morganii, A15153, Proteus morganii A15153; overnight 37° C.; read-out: Minimum Inhibitory Concentration (M.I.C.)
Excerpt: as §1

Ser. marcescens A-20019 = assay: MIC, tube dilution, Serratia marcescens A20019; format: cell-based; details: Serratia marcescens, A20019, Serratia marcescens A20019; overnight 37° C.; read-out: Minimum Inhibitory Concentration (M.I.C.)
Excerpt: as §1

Ent. cloacae A-9659 = assay: MIC, tube dilution, Enterobacter cloacae A9659; format: cell-based; details: Enterobacter cloacae, A9659, Enterobacter cloacae A9659; overnight 37° C.; read-out: Minimum Inhibitory Concentration (M.I.C.)
Excerpt: as §1

Ent. cloacae A-9656 = assay: MIC, tube dilution, Enterobacter cloacae A9656; format: cell-based; details: overnight 37° C., read-out: Minimum Inhibitory Concentration (M.I.C.)
Excerpt: as §1

Ps. aeruginosa A-9843A = assay: MIC, tube dilution, Pseudomonas aeruginosa A9843A; format: cell-based; details: Pseudomonas aeruginosa, A9843A, read-out: Minimum Inhibitory Concentration (M.I.C.), Pseudomonas aeruginosa A9843A; overnight 37° C.
Excerpt: as §1

Ps. aeruginosa A-21213 = assay: MIC, tube dilution, Pseudomonas aeruginosa A21213; format: cell-based; details: overnight 37° C., read-out: Minimum Inhibitory Concentration (M.I.C.)
Excerpt: as §1

Proteus rettgeri A21203 = assay: MIC, tube dilution, Proteus rettgeri A21203; format: cell-based; details: Providencia rettgeri, overnight 37° C., read-out: Minimum Inhibitory Concentration (M.I.C.)
Excerpt: as §1

Proteus vulgaris A21559 = assay: MIC, tube dilution, Proteus vulgaris A21559; format: cell-based; details: Proteus vulgaris
Excerpt: as §1

[5] = Staph. aureus A9606 (Pen-Res), read-out: Minimum Inhibitory Concentration (M.I.C.)
[6] = Staph. aureus A15097 (Meth-Res), read-out: Minimum Inhibitory Concentration (M.I.C.)
[7] = Escherichia coli, A203411, E. coli A20341-1; overnight 37° C.; read-out: Minimum Inhibitory Concentration (M.I.C.)
[8] = Enterobacter cloacae, A9656, Enterobacter cloacae A9656
[9] = A21203, Proteus rettgeri A21203
[10] = A21559, Proteus vulgaris A21559, overnight 37° C., read-out: Minimum Inhibitory Concentration (M.I.C.)
[11] = Escherichia coli, A203411; E. coli A20341-1; overnight 37° C.; read-out: Minimum Inhibitory Concentration (M.I.C.)

Row | SMILES | MIC (Str. pneumoniae A-9585) [µg/mL] | MIC (Str. pyogenes A-9604) [µg/mL] | MIC (Staph. aureus A-9537) [µg/mL] | MIC [1] [µg/mL] | MIC [2, 5] [µg/mL] | MIC [3, 6] [µg/mL] | MIC (Str. faecalis A-20688) [µg/mL] | MIC (E. coli A-15119) [µg/mL] | MIC (E. coli A-20341-1; [7]) [µg/mL] | MIC (K. pneumoniae A-15130) [µg/mL] | MIC [4] [µg/mL] | MIC (Pr. mirabilis A-9900) [µg/mL] | MIC (Pr. morganii A-15153) [µg/mL] | MIC (Ser. marcescens A-20019) [µg/mL] | MIC (Ent. cloacae A-9659) [µg/mL] | MIC (Ent. cloacae A-9656; [8]) [µg/mL] | MIC (Ps. aeruginosa A-9843A) [µg/mL] | MIC (Proteus rettgeri A21203; [9]) [µg/mL] | MIC (Proteus vulgaris A21559; [10]) [µg/mL] | MIC (Ps. aeruginosa A-21213; Pseudomonas aeruginosa A21213) [µg/mL] | other results
1 | CC1=C(C(=O)O)N2C(=O)[C@H]([C@@H](C)N)[C@H]2S1 (relative stereo) [Example 70, (1'R,5R,6S and 1'S,5S,6R) 6-1'Amino-1'-ethyl)-2-methylpenem-3-carboxylic Acid] | > 63 | > 63 | > 63 | > 32 | > 63 | > 63 | > 63 | > 63 | > 63 | > 63 | > 63 | > 63 | > 63 | > 63 | > 63 | > 63 | > 63 | > 63 | > 63 |  | MIC (Ps. aeruginosa A-21213; Pseudomonas aeruginosa, A21213, Pseudomonas aeruginosa A21213): > 63 µg/mL
2 | O=C(O)C1=C(Cn2cnnn2)SC2CC(=O)N12 (centres unmarked) [Example 76, Sodium 2-(1H-Tetrazolemethyl)-penem-3-carboxylate] | 0.03 | 0.5 | 1 | > 63 | 4 | 8 | 125 | 4 |  | 63 | > 125 | 8 | 16 | 16 | 16 | 16 | > 125 | 8 | 8 | > 125 | MIC (E. coli A-20341-1; [11]): > 125 µg/mL
3 | CC(N)C1=C(C(=O)O)N2C(=O)CC2S1 (centres unmarked) [Example 72, 2-(1'-Aminoethyl)-penem-3-carboxylic Acid] | 1 (≈ 4.67 µM) | 2 (≈ 9.34 µM) | 4 (≈ 18.7 µM) | 63 | 32 (≈ 149 µM) | 63 (≈ 294 µM) | > 125 | 125 (≈ 583 µM) |  | > 125 | > 125 | 125 (≈ 583 µM) | > 125 | > 125 | > 125 |  | > 125 |  |  | > 125 | MIC (E. coli A-20341-1; [11]): > 125 µg/mL; MIC (Ent. cloacae A-9656; Enterobacter cloacae A9656): > 125 µg/mL; MIC (Proteus rettgeri A21203; Proteus rettgeri A21203): 125 µg/mL (≈ 583 µM); MIC (Proteus vulgaris A21559; A21559, read-out: Minimum Inhibitory Concentration (M.I.C.)): 125 µg/mL (≈ 583 µM)
4 | CC1=C(C(=O)O)N2C(=O)[C@@H]([C@H](C)O)[C@H]2S1 (relative stereo) [Example 61, (1'S,5R,6R and 1'R,5S,6S) 6-(1'-Hydroxy-1'-ethyl)-2-methylpenem-3-carboxylic Acid (isomer A)] | 0.03 (≈ 0.131 µM) | 0.06 (≈ 0.262 µM) | 0.5 (≈ 2.18 µM) | 4 | 1 (≈ 4.36 µM) | 2 (≈ 8.72 µM) | 2 (≈ 8.72 µM) | 2 (≈ 8.72 µM) | 8 (≈ 34.9 µM) | 8 (≈ 34.9 µM) | 63 (≈ 275 µM) | 2 (≈ 8.72 µM) | 8 (≈ 34.9 µM) | 8 (≈ 34.9 µM) | 8 (≈ 34.9 µM) | 32 (≈ 140 µM) | 63 (≈ 275 µM) | 2 (≈ 8.72 µM) | 4 (≈ 17.4 µM) |  | 
5 | O=C(O)C1=C(C2CC2)SC2CC(=O)N12 (centres unmarked) [Example 14, 2-Cyclopropylpenem-3-carboxylic Acid] | 0.06 (≈ 0.284 µM) | 0.25 (≈ 1.18 µM) | 0.13 (≈ 0.615 µM) | 16 |  | 2 (≈ 9.47 µM) | 63 (≈ 298 µM) | 4 (≈ 18.9 µM) | 63 (≈ 298 µM) | 16 (≈ 75.7 µM) | > 125 | 4 (≈ 18.9 µM) | 16 (≈ 75.7 µM) | 8 (≈ 37.9 µM) | 16 (≈ 75.7 µM) | 16 (≈ 75.7 µM) | 125 (≈ 592 µM) | 4 (≈ 18.9 µM) |  | 125 (≈ 592 µM) | 
6 | O=C([O-])C1=C(CO)S[C@@H]2CC(=O)N12.[Na+] [Preparation 20, Sodium 2-Hydroxymethylpenem-3-carboxylate] | 0.25 | 1 | 2 | 16 |  |  | > 125 | 16 |  | 63 | > 125 | 16 | 32 | 32 | 63 |  | 125 |  |  | > 125 | MIC ([2]; read-out: Minimum Inhibitory Concentration (M.I.C.), Staph. aureus A9606 (Pen-Res)): 4 µg/mL; MIC ([3]; read-out: Minimum Inhibitory Concentration (M.I.C.), Staph. aureus A15097 (Meth-Res)): 8 µg/mL; MIC (E. coli A-20341-1; [11]): 63 µg/mL; MIC (Ent. cloacae A-9656; Enterobacter cloacae A9656): 32 µg/mL; MIC (Proteus rettgeri A21203; Proteus rettgeri A21203): 32 µg/mL
7 | CC1=C(C(=O)O)N2C(=O)[C@@H]([C@@H](C)O)[C@H]2S1 (relative stereo) [Example 58, (1'R,5R,6R) and (1'S,5S,6S) 6-(1'-Hydroxy-1'-ethyl)-2-methylpenem-3-carboxylic Acid (isomer D)] |  |  |  |  |  |  |  |  |  |  |  |  |  |  |  |  |  |  |  |  | Minimum Inhibitory Concentration (M.I.C.) (Str. pyogenes A-9604; Str. pyogenes A9604): 2 µg/mL; Minimum Inhibitory Concentration (M.I.C.) (Staph. aureus A-9537; Staph. aureus A9537): 4 µg/mL; Minimum Inhibitory Concentration (M.I.C.) ([3]; Staph. aureus A15097 (Meth-Res)): 16 µg/mL

— patent US4272437A, “Antibacterial agents, and 4-thio azetidinone intermediates” (priority 1979, dated 1981)
